In US20180179174A1, “12H-BENZO[b]XANTHEN-12-ONES, COMPOSITIONS CONTAINING, AND USES OF, SAME” (Thesan Pharmaceuticals, Inc., priority 2015, published 2018):

Key:
[1] = biological target: T1, Aryl Hydrocarbon Receptor (Homo sapiens, UniProt P35869); assay: AhR activation, luciferase reporter (plox-XRE TATA-Luc) in HEP G2 cells; type: cell-based; settings: 24 h, 1-10 uM
T1 construct: endogenous in cells; host or cells: normal human keratinocytes (NHK) transduced with the reporter lentivector plox-XRE TATA-Luc
T1 sequence (P35869 11-848): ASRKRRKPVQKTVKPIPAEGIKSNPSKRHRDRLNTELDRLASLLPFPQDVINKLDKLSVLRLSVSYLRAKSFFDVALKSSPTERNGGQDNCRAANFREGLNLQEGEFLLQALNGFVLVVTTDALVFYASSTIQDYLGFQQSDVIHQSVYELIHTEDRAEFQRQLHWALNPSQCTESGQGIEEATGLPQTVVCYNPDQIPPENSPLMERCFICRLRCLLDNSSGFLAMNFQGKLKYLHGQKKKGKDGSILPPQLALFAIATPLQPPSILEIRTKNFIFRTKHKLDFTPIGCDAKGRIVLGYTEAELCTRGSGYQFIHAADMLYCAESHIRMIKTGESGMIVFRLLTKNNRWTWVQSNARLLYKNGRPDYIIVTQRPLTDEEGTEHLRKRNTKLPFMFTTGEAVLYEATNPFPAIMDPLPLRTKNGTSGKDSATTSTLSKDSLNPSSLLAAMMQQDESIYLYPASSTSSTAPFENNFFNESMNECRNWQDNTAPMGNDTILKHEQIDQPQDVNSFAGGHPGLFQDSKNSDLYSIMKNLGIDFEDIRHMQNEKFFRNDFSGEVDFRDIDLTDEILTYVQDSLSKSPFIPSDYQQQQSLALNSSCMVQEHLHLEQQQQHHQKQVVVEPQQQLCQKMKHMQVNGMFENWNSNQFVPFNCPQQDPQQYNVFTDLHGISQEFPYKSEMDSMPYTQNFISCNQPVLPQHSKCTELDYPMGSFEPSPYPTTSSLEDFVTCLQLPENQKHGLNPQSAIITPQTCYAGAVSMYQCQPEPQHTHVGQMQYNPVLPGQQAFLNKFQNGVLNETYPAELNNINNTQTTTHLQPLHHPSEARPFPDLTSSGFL
Protocol: AhR activation is measured in HEP G2 cells (hepatocytes, Hep G2 is a human liver carcinoma cell line) stably transfected with the lentivector plox-XRE TATA-Luc. The Hep G2 cells are cultured in a growing media consisting of DMEM (Gibco)+10% fetal bovine serum+penicillin+streptomycin. At D0, the Hep G2 cells are seeded into 12-well plates in proportions of approximately 30,000 cells/cm^2. After 24 h, the medium is replaced with fresh medium and the cells are transduced with the lentivector plox-XRE TATA-Luc. After 48 h, the cells are subcultured and maintained in culture, and tested for their reactivity to 3-phenyl-1H-benzo[f]chromen-1-one. The tests are carried out using the luciferase reporter assay system kit from Promega. At D0, the cells are seeded at a density of approximately 60% confluence, and then treated, at D1, with the test substance diluted to various concentrations in the appropriate culture medium. At D2, the cells are lysed in CLB buffer, and the lysate is clarified by centrifugation for 5 min at 10 000 g. The luciferase activity is measured in 20 microliters of lysate as recommended by the supplier, using the luminoskan luminometer (Thermo). […] Data is processed and EC50's can be calculated from standard data monitoring software.

[2] = biological target: T1, Aryl Hydrocarbon Receptor; assay: AhR activation, luciferase reporter (plox-XRE TATA-Luc) in normal human keratinocytes; type: cell-based; settings: NHK-plox-XRE TATA-Luc cells, 24 h, 1-10 uM
Protocol: AhR activation is also measured in human skin cells such as normal human keratinocytes (NHK cells) or A431 epidermoid cells stably transfected with the lentivector plox-XRE TATA-Luc. The NHK cells are cultured in a specific keratinocyte SFM medium (Gibco)+penicillin+streptomycin. At D0, the NHK cells are seeded into 6-well plates in a proportion of approximately 15,000 cells/cm^2. After 24 h, the medium is replaced with fresh medium and the cells are transduced with the lentivector plox-XRE TATA-Luc. After 48 h, the cells are subcultured and maintained in culture, and tested for their reactivity to 3-phenyl-1H-benzo[f]chromen-1-one. The tests are carried out using the luciferase reporter assay system kit from Promega. At D0, the cells are seeded at a density of approximately 60% confluence, and then treated, at D1, with the test substance diluted to various concentrations in the appropriate culture medium. At D2, the cells are lysed in CLB buffer, and the lysate is clarified by centrifugation for 5 min at 10 000 g. The luciferase activity is measured in 20 microliters of lysate as recommended by the supplier, using the luminoskan luminometer (Thermo). […] Data is processed and EC50's can be calculated from standard data monitoring software.

CYP1A1 [3] = assay: CYP1A1 activity test (P450-GLO) in HEP G2 or NHK cells; type: cell-based, human; settings: 24 h, 1-10um, control compound
Protocol: The essential methodology for culture and handling of HEP G2 cells and NHK cells has been described in Examples 2 and 3. The tests are carried out using the P450-GLO assay kit from Promega. At D0, the cells are seeded at a density of approximately 60% confluence, and then treated at D1 with the test substance diluted to various concentrations in the appropriate culture medium. At D2, the CYP1A1 activity is measured as recommended by the supplier, using the non-lytic protocol on a cell monolayer.

CYP1A1 [4] = assay: Induction of Cyp1A1 in HEP G2 cells (EROD assay); type: cell-based; settings: human, probe 7-ethoxyresorufin (8 μM), HepG2 cells, 1-10 μM range, vs solvent
Protocol: The essential methodology for culture and handling of HEP G2 cells and NHK cells has been described in Examples 2 and 3. HepG2 cells are seeded at between 1×10^4 and 2.5×10^4 cells/well in a 96-well microtitre plate. […] The formation of resorufin is quantified by fluorometry with a fluorescence plate reader. Fluorescence is determined at λex 570 nm and λem 590 nm. The amount of resorufin is calculated from a standard curve generated using 0 to 1 μM resorufin in water at ½ log dilutions. The remaining (i.e. all cells present at the beginning of analysis, since only supernatant is taken to assay EROD) live cells are subsequently utilized for the MIT cytotoxicity assay. MTT is made up in serum-free medium at 5 mg/ml. then added to the cells giving a final concentration of 10% (0.5 mg/ml MTT final) then incubated for 2 h. The medium is carefully removed, then MTT formazan is solubilized by adding 200 μl of DMSO and subsequently mixed on a plate shaker. The absorbance is measured spectrophotometrically at 550 nm and background absorbance at 690 nm is subtracted. A standard curve generated using MTT formazan (dissolved in DMSO) from 0-200 μM (0, 2, 5, 10, 20, 50, 100, 200 μM) is used to calculate the final experimental values which are then expressed as (μmol resorufin/mol MIT formazan) or as fold-induction compared to solvent.

sebaceous glands = assay: Mouse ear assay for determination of sebaceous gland prevalence; type: in vivo, C57BL/6J male mice; settings: 0.7% in DMSO:acetone 50:50, 80 ul dermal twice a day for five days, vs controls
Protocol: C57BL/6J male mice (Harlan Models), approximately 4-5 weeks of age, body weight 20-30 g, were acclimatized (individually housed) for 5 days in a 12 hour light/dark cycle standard laboratory environment (T=20-24° C., relative humidity 30-70%, 15-20 air changes per hour) with access to water and standard rodent chow (Harlan Teklad 2014C supplied by Harlan Laboratories Models, S.L.) ad libitum. […] All animals were monitored daily for reaction to the treatment, signs of illness, and behavioral changes. Body weights were recorded before the first administration and immediately prior to sacrifice. Approximately 12 to 16 hours after the final administration on day 5 the mice were sacrificed by i.p. injection of sodium pentobarbital (200 mg/kg) and the ears were collected. Each ear was sectioned into two halves. For each animal, one-half of one ear was fixed, in neutral phosphate-buffered 4% formaldehyde solution (4% formalin). This trimmed section of the ear was then processed, embedded in paraffin wax and stored at room temperature. The remaining half of that ear and the entire opposite ear was frozen at −80° C. Wax mounted ear pieces were sectioned with a microtome and stained with hematoxylin and eosin. Sebaceous glands were identified visually by their structures. […]

| induction of the luciferase activity [1] | induction (luciferase activity) [2] | induction of the CYP1A1 activity (CYP1A1 [3]) | fold induction at 24 h (CYP1A1 [4]) | SMILES | number of differentiated sebocytes (sebaceous glands) | number of sebaceous glands (sebaceous glands) |
| --- | --- | --- | --- | --- | --- | --- |
| significant induction | significant induction | significant induction |  | O=c1cc(-c2ccccc2)oc2ccc3ccccc3c12 [3-phenyl-1H-benzo[f]chromen-1-one] |  |  |
|  |  |  | > 20 | O=c1c2ccccc2oc2cc3ccccc3cc12 [compound A] | reduction | clear reduction |
